Assay results: publication PMC6633970, “Acetylcholinesterases from Leaf-Cutting ant Atta sexdens: Purification, Characterization, and Capillary Reactors for On-Flow Assays” (Enzyme Research, 2019)

Experiments:
[1] = target: T1, AsAChE-B (Atta sexdens, UniProt A0A2R2V0F5); assay: on-flow LC-MS/MS of choline with immobilized enzyme capillary reactor; format: biochemical; conditions: read-out: % inhibition at 0.1 mM
T1 construct: native, soluble, from worker heads

[2] = test system: T2, AsAChE-A; assay: Ellman assay, […] nm, Lineweaver-Burk; format: biochemical, Atta sexdens; conditions: free enzyme; Tris-HCl, optimal pH (9.5) and temperature (30 or 50 °C, which not told); iodide salt; partially purified native enzyme
T2 construct: gene ace 2; native, soluble, from worker heads

[3] = test system: T2, AsAChE-A; assay: LC-MS/MS quantification of choline, HILIC; format: biochemical, Atta sexdens; conditions: free enzyme; 15 mM ammonium acetate, pH 5.0 as printed; 5 min
From the text: LC-MS/MS quantification of choline, HILIC on AsAChE-A

SMILES: Nc1c2c(nc3ccccc13)CCCC2 [tacrine]
- inhibition at 100 µM [1]: 16%

SMILES: CC(=O)SCC[N+](C)(C)C [ATCh, acetylthiocholine]
- Km [2]: 39.1 ± 2.3 µM

SMILES: CC(=O)OCC[N+](C)(C)C [ACh, acetylcholine]
- Km [3]: 40.7 ± 12.5 µM
